Patent US4335127A, “Piperidinylalkyl quinazoline compounds, composition and method of use” (Janssen Pharmaceutica, N.V., priority 1979, dated 1982)

Columns and labels:
[1] = test system: cyanosis of ears and extremities induced by compound 48/80 in rats; test: Cyanosis of ears and extremities induced by compound 48/80 (Test 2); type: in vivo, rat (male, Wistar inbred strain); conditions: Rattus norvegicus, po, 5 min; read-out: Cyanosis ED50 (dose at which cyanosis of ears and extremities is completely absent in 50% of the test rats)
Procedure: (§1) The shock, followed by dead, can be avoided if the rats are pretreated with a classical H 1 antagonist.
(§2) Male rats of a Wistar inbred strain, weighing 220-250 g, are starved overnight, water being available ad libitum. The test compounds are administered orally as a solution or as a suspension in aqueous medium. A control rat and a "blank" rat receive the test compound. One hour later 5-[4-(diphenylmethyl)-1-piperazinylmethyl]-1-methyl-1H-benzimidazole-2-methanol is administered subcutaneously to all rats at the dose of 2.5 mg/kg. […] Five minutes after the injection the intensity of purple-blue coloration (cyanosis) of the extremities is scored as 0 (absent), +(moderate) or ++(intense). Four hours after the intravenous injection of compound 48/80 the rats are decapitated and the stomachs are removed. Subsequently the stomachs are inspected for distension and contents (blood, fluid, food) and thoroughly rinsed. The macroscopic lesions are scored from 0 to + ++, 0 corresponding to complete absence of visible lesions and the highest score corresponding to reddish rough patches covering more than half the glandular area.

[2] = test system: Caudal Artery of the Rat (effect of serotonin); test: Antagonistic Activity on the Effect of Serotonin on the Caudal Artery of the Rat (Test 1); conditions: serotonin 40 ng/ml; 5 minutes after adding the drug; rat caudal artery strips
Procedure: Caudal arteries from fasted male rats (210-235 g) are used in the test. Two helical strips having a length of 5-6 cm and a width of 2 mm are obtained from each artery and mounted vertically in a 100 ml organ bath containing an oxygenated Krebs-Henseleit solution. Submaximal contractions of the arterial strips are produced by adding single doses of serotonin (40 ng/ml) to the organ bath for 2 minutes with each time an interval of 10 minutes. The amplitude of the contraction is measured before and 5 minutes after adding the drug. After washing out, the agonist is added again three times in order to see whether the contraction is restored and normalized. […] In this connection the ED50 -values are the minimal concentrations of the concerned drugs which reduce the amplitude of the contraction to at least 50% of its normal value.

[3] = test system: lesions in the glandular area of the stomach and distension of the stomach induced by compound 48/80 in rats; test: Gastric lesion test: lesions induced by compound 48/80 (Test 2); type: in vivo, rat (male, Wistar inbred strain); conditions: oral, 2 hours before compound 48/80 (1 mg/kg i.v.); stomachs inspected 4 hours after
Procedure: as §1, §2

[4] = test system: cyanosis of ears and extremities induced by compound 48/80 in rats; conditions: rats treated with compound 48/80; cited from earlier work
[5] = test system: lesions in the glandular area of the stomach and distension of the stomach induced by compound 48/80 in rats; conditions: rats treated with compound 48/80; cited from earlier work

## Cn1c(=O)n(CCN2CCC(C(=O)c3ccc(F)cc3)CC2)c(=O)c2ccccc21
[1]
  ED50: 0.16 mg/kg
[2]
  Caudal artery ED50 (minimal concentration which reduces the amplitude of the serotonin-induced contraction to at least 50% of its normal value): 0.7 ng/mL
[3]
  G. lesion ED50 (dose at which distension of the stomach and lesions in the glandular area are completely absent in 50% of the test rats): 1.25 mg/kg

## O=c1[nH]c2ccccc2c(=O)n1CCN1CCC(C2(c3ccc(F)cc3)OCCO2)CC1
[1]
  ED50: 0.16 mg/kg
[2]
  Caudal artery ED50 (minimal concentration which reduces the amplitude of the serotonin-induced contraction to at least 50% of its normal value): 11 ng/mL
[3]
  G. lesion ED50 (dose at which distension of the stomach and lesions in the glandular area are completely absent in 50% of the test rats): 0.31 mg/kg

## O=C(c1ccc(Cl)cc1)C1CCN(CCn2c(=O)[nH]c3ccccc3c2=O)CC1
[2]
  Caudal artery ED50 (minimal concentration which reduces the amplitude of the serotonin-induced contraction to at least 50% of its normal value): 2.5 ng/mL

## COc1ccc(C(=O)C2CCN(CCn3c(=O)[nH]c4ccccc4c3=O)CC2)cc1
[2]
  Caudal artery ED50 (minimal concentration which reduces the amplitude of the serotonin-induced contraction to at least 50% of its normal value): 2.5 ng/mL

## O=C(c1ccc(F)cc1)C1CCN(CCCn2c(=O)[nH]c3ccccc3c2=O)CC1
[2]
  Caudal artery ED50 (minimal concentration which reduces the amplitude of the serotonin-induced contraction to at least 50% of its normal value): 1.25 ng/mL
[3]
  G. lesion ED50 (dose at which distension of the stomach and lesions in the glandular area are completely absent in 50% of the test rats): 2.5 mg/kg

## Cc1ccc2[nH]c(=O)n(CCN3CCC(C(=O)c4ccc(F)cc4)CC3)c(=O)c2c1
[1]
  ED50: 0.63 mg/kg
[2]
  Caudal artery ED50 (minimal concentration which reduces the amplitude of the serotonin-induced contraction to at least 50% of its normal value): 1.3 ng/mL
[3]
  G. lesion ED50 (dose at which distension of the stomach and lesions in the glandular area are completely absent in 50% of the test rats): 2.5 mg/kg

## O=C(c1ccc(F)cc1)C1CCN(CCn2c(=O)[nH]c3cc(Cl)ccc3c2=O)CC1
[1]
  ED50: 1.25 mg/kg
[2]
  Caudal artery ED50 (minimal concentration which reduces the amplitude of the serotonin-induced contraction to at least 50% of its normal value): 2 ng/mL
[3]
  G. lesion ED50 (dose at which distension of the stomach and lesions in the glandular area are completely absent in 50% of the test rats): 1.25 mg/kg

## O=C1NC(CCN2CCC(C(=O)c3ccc(F)cc3)CC2)Nc2ccccc21 (stereo not drawn) [2-[2-[4-(4-fluorobenzoyl)-1-piperidinyl]ethyl]-2,3-dihydro-4(1H)-quinazolinone]
[1]
  ED50: 1.25 mg/kg
[2]
  Caudal artery ED50 (minimal concentration which reduces the amplitude of the serotonin-induced contraction to at least 50% of its normal value): 0.7 ng/mL
[3]
  G. lesion ED50 (dose at which distension of the stomach and lesions in the glandular area are completely absent in 50% of the test rats): 2.5 mg/kg

## Nc1cc(F)ccc1C(=O)C1CCN(CCn2c(=O)[nH]c3ccccc3c2=O)CC1 [3-[2-[4-(2-amino-4-fluorobenzoyl)-1-piperidinyl]ethyl]-2,4(1H,3H)-quinazolinedione]
[1]
  ED50: 0.16 mg/kg
[2]
  Caudal artery ED50 (minimal concentration which reduces the amplitude of the serotonin-induced contraction to at least 50% of its normal value): 0.6 ng/mL
[3]
  G. lesion ED50 (dose at which distension of the stomach and lesions in the glandular area are completely absent in 50% of the test rats): 1.25 mg/kg

## O=C(c1ccc(F)cc1)C1CCN(CCn2c(=S)[nH]c3ccccc3c2=O)CC1 [3-[2-[4-(4-fluorobenzoyl)-1-piperidinyl]ethyl]-2,3-dihydro-2-thioxo-4(1H)-quinazolinone]
[1]
  ED50: 0.04 mg/kg
[2]
  Caudal artery ED50 (minimal concentration which reduces the amplitude of the serotonin-induced contraction to at least 50% of its normal value): 0.6 ng/mL
[3]
  G. lesion ED50 (dose at which distension of the stomach and lesions in the glandular area are completely absent in 50% of the test rats): 0.08 mg/kg

## O=C(c1ccc(F)cc1)C1CCN(CCN2CNc3ccccc3C2=O)CC1 [3-[2-[4-(4-fluorobenzoyl)-1-piperidinyl]ethyl]-2,3-dihydro-4(1H)-quinazolinone]
[2]
  Caudal artery ED50 (minimal concentration which reduces the amplitude of the serotonin-induced contraction to at least 50% of its normal value): 5 ng/mL
[3]
  G. lesion ED50 (dose at which distension of the stomach and lesions in the glandular area are completely absent in 50% of the test rats): ≥ 2.5 mg/kg

## O=C(c1ccc(F)cc1)C1CCN(CCn2c(=O)[nH]c3ccccc3c2=O)CC1 [3-[2-[4-(4-fluorobenzoyl)-1-piperidinyl]ethyl]-2,4-(1H,3H)-quinazolinedione]
[1]
  ED50: 0.08 mg/kg
[2]
  Caudal artery ED50 (minimal concentration which reduces the amplitude of the serotonin-induced contraction to at least 50% of its normal value): 0.7 ng/mL
[3]
  G. lesion ED50 (dose at which distension of the stomach and lesions in the glandular area are completely absent in 50% of the test rats): 0.16 mg/kg

## Cc1nc2ccccc2c(=O)n1CCN1CCC(C(=O)c2ccc(F)cc2)CC1 [3-[2-[4-(4-fluorobenzoyl)-1-piperidinyl]ethyl]-2-methyl-4(3H)-quinazolinone]
[1]
  ED50: 0.16 mg/kg
[2]
  Caudal artery ED50 (minimal concentration which reduces the amplitude of the serotonin-induced contraction to at least 50% of its normal value): 0.6 ng/mL
[3]
  G. lesion ED50 (dose at which distension of the stomach and lesions in the glandular area are completely absent in 50% of the test rats): 0.16 mg/kg

## O=C(c1ccc(F)cc1)C1CCN(CCn2cnc3ccccc3c2=O)CC1 [3-[2-[4-(4-fluorobenzoyl)-1-piperidinyl]ethyl]-4(3H)-quinazolinone]
[1]
  ED50: 0.31 mg/kg
[2]
  Caudal artery ED50 (minimal concentration which reduces the amplitude of the serotonin-induced contraction to at least 50% of its normal value): 0.6 ng/mL
[3]
  G. lesion ED50 (dose at which distension of the stomach and lesions in the glandular area are completely absent in 50% of the test rats): 0.31 mg/kg

## COc1ccc2c(=O)n(CCN3CCC(C(=O)c4ccc(F)cc4)CC3)c(=O)[nH]c2c1 [3-[2-[4-(4-fluorobenzoyl)-1-piperidinyl]ethyl]-7-methoxy-2,4(1H,3H)-quinazolinedione]
[1]
  ED50: 0.16 mg/kg
[2]
  Caudal artery ED50 (minimal concentration which reduces the amplitude of the serotonin-induced contraction to at least 50% of its normal value): 0.7 ng/mL
[3]
  G. lesion ED50 (dose at which distension of the stomach and lesions in the glandular area are completely absent in 50% of the test rats): 0.31 mg/kg

## O=c1[nH]c2ccccc2c(=O)n1CCN1CCC(C(O)c2ccc(F)cc2)CC1 (stereo not drawn) [3-[2-[4-[(4-fluorophenyl)hydroxymethyl]-1-piperidinyl]ethyl]-2,4(1H,3H)-quinazolinedione]
[1]
  ED50: 1.25 mg/kg
[2]
  Caudal artery ED50 (minimal concentration which reduces the amplitude of the serotonin-induced contraction to at least 50% of its normal value): 20 ng/mL
[3]
  G. lesion ED50 (dose at which distension of the stomach and lesions in the glandular area are completely absent in 50% of the test rats): 1.25 mg/kg

## O=C(c1ccc(F)cc1)C1CCN(CCCn2c(=S)[nH]c3ccccc3c2=O)CC1 [3-[3-[4-(4-fluorobenzoyl)-1-piperidinyl]propyl]-2,3-dihydro-2-thioxo-4(1H)-quinazolinone]
[1]
  ED50: 0.63 mg/kg
[2]
  Caudal artery ED50 (minimal concentration which reduces the amplitude of the serotonin-induced contraction to at least 50% of its normal value): 2 ng/mL
[3]
  G. lesion ED50 (dose at which distension of the stomach and lesions in the glandular area are completely absent in 50% of the test rats): 2.5 mg/kg

## O=C(O)/C=C/C(=O)O.O=C(c1ccc(F)cc1)C1CCN(CCCN2CNc3ccccc3C2=O)CC1 [3-[3-[4-(4-fluorobenzoyl)-1-piperidinyl]propyl]-2,3-dihydro-4-(1H)-quinazolinone (E)-2-butenedioate (1:1)]
[2]
  Caudal artery ED50 (minimal concentration which reduces the amplitude of the serotonin-induced contraction to at least 50% of its normal value): 10 ng/mL
[3]
  G. lesion ED50 (dose at which distension of the stomach and lesions in the glandular area are completely absent in 50% of the test rats): ≥ 2.5 mg/kg

## O=C(O)/C=C/C(=O)O.O=C(c1ccc(F)cc1)C1CCN(CCCn2cnc3ccccc3c2=O)CC1 [3-[3-[4-(4-fluorobenzoyl)-1-piperidinyl]propyl]-4(3H)-quinazolinone (E)-2-butenedioate (1:1)]
[2]
  Caudal artery ED50 (minimal concentration which reduces the amplitude of the serotonin-induced contraction to at least 50% of its normal value): 5 ng/mL
[3]
  G. lesion ED50 (dose at which distension of the stomach and lesions in the glandular area are completely absent in 50% of the test rats): 2.5 mg/kg

## O=C(c1ccc(F)cc1)C1CCN(CCN2C(=O)Nc3ccc(Cl)cc3C2c2ccccc2)CC1 (stereo not drawn) [6-chloro-3-[2-[4-(4-fluorobenzoyl)-1-piperidinyl]ethyl]-3,4-dihydro-4-phenyl-2(1H)-quinazolinone]
[1]
  ED50: 0.63 mg/kg
[3]
  G. lesion ED50 (dose at which distension of the stomach and lesions in the glandular area are completely absent in 50% of the test rats): 0.63 mg/kg

## O=C(c1ccc(F)cc1)C1CCN(CCn2c(=O)[nH]c3cc(F)ccc3c2=O)CC1 [7-fluoro-3-[2-[4-(4-fluorobenzoyl)-1-piperidinyl]ethyl]-2,4(1H,3H)-quinazolinedione]
[1]
  ED50: 0.16 mg/kg
[2]
  Caudal artery ED50 (minimal concentration which reduces the amplitude of the serotonin-induced contraction to at least 50% of its normal value): 0.7 ng/mL
[3]
  G. lesion ED50 (dose at which distension of the stomach and lesions in the glandular area are completely absent in 50% of the test rats): 1.25 mg/kg

## CN(C)CCCSc1ccccc1NC(=O)/C=C/c1ccccc1 [cinanserin]
[4]
  prevention of the cyanosis of ears and extremities (known serotonin antagonists): prevent completely
[5]
  prevention of the abnormal gastric distension (known serotonin antagonists): prevent completely
  prevention of the lesions in the glandular area of the stomach (known serotonin antagonists): prevent completely

## CN1CCC(=C2c3ccccc3C=Cc3ccccc32)CC1 [cyproheptadine]
[4]
  prevention of the cyanosis of ears and extremities (known serotonin antagonists): prevent completely
[5]
  prevention of the abnormal gastric distension (known serotonin antagonists): prevent completely
  prevention of the lesions in the glandular area of the stomach (known serotonin antagonists): prevent completely

## O=C(c1ccc(F)cc1)C1CCN(CCN2C(=O)Nc3ccccc3C2c2ccccc2)CC1 (stereo not drawn) [drawing 34: R^6=C6H5, Alk=(CH2)2, Ar=4-FC6H4, 3-[2-[4-(4-fluorobenzoyl)-1-piperidinyl]ethyl]-3,4-dihydro-4-phenyl-2(1H)-quinazolinone]
[1]
  ED50: 0.08 mg/kg
[2]
  Caudal artery ED50 (minimal concentration which reduces the amplitude of the serotonin-induced contraction to at least 50% of its normal value): 0.6 ng/mL
[3]
  G. lesion ED50 (dose at which distension of the stomach and lesions in the glandular area are completely absent in 50% of the test rats): 0.08 mg/kg
